# Source: ChEMBL document CHEMBL1201862, “PubChem BioAssay data set” (2004)
# Active and inactive are the calls of the source.
# Key:
# [1] = blockers of bursicon-stimulated LGR2 cAMP reporter – cell-based, HEK293, CRE-luciferase reporter, cherry pick, set 2, dose response (AID 743343); format: functional;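 also: transfected cells were stimulated with diluted bursicon conditioned medium after compound addition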
# [2] = blockade of melanocortin 4 receptor signaling – cell-based, plate reader, cherry pick, counter-screen for LGR2 antagonist project, dose response (AID 743444); format: functional;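 also: transfected HEK 293 cells stimulated with alpha-MSH peptide; potency of inhibitors of the alpha-MSH evoked signal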
# [3] = molecular target: T1, Microphthalmia-associated transcription factor (Homo sapiens, UniProt O75030); assay: reducers of TRPM1 reporter luminescence, concentration series – cell-based, SK-MEL-5, cherry-picked, set 3, MITF inhibitor project, dose response (AID 493073); format: functional;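 also: SK-MEL-5 melanoma cells with luciferase driven by the MITF target TRPM1 promoter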
# T1 sequence (O75030 whole entry): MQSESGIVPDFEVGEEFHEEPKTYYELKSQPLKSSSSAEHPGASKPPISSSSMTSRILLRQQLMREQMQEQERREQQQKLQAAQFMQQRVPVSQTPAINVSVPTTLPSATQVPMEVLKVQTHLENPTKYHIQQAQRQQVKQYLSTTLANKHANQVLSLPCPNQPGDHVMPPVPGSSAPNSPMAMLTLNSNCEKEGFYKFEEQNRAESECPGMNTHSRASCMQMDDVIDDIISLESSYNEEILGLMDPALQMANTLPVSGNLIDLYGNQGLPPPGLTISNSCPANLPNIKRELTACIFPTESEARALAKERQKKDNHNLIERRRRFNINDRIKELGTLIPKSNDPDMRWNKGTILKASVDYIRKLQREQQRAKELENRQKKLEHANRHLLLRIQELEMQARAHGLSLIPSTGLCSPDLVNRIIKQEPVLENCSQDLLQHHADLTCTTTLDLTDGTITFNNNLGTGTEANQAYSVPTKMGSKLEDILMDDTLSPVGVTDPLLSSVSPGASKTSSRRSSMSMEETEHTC
# [4] = alpha-synuclein stem-loop luciferase translation blockers – H4 neuroglioma cells, luminescence, confirmation (AID 1988); format: functional, cell-based
# [5] = luciferase reporter signal suppression in cells – H4 neuroglioma cells, luminescence, dose response (AID 1990); format: functional, cell-based
# [6] = Luminescence Cell-Based Dose Response HTS to Identify Inhibitors of 5'UTR Stem-Loop Driven Prion Protein mRNA Translation in H4 Neuroglioblastoma Cells. [Related pubchem assays: 1827 (Project Summary), 1813 (Primary HTS)]; format: functional
# Coagulation factor XII = molecular target: T2, Coagulation factor XII (Homo sapiens, UniProt P00748); format: functional;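 also: activated factor XIIa alpha cleaving a fluorogenic AMC peptide substrate; inhibitor potency from loss of enzyme activity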
# T2 sequence (P00748 whole entry): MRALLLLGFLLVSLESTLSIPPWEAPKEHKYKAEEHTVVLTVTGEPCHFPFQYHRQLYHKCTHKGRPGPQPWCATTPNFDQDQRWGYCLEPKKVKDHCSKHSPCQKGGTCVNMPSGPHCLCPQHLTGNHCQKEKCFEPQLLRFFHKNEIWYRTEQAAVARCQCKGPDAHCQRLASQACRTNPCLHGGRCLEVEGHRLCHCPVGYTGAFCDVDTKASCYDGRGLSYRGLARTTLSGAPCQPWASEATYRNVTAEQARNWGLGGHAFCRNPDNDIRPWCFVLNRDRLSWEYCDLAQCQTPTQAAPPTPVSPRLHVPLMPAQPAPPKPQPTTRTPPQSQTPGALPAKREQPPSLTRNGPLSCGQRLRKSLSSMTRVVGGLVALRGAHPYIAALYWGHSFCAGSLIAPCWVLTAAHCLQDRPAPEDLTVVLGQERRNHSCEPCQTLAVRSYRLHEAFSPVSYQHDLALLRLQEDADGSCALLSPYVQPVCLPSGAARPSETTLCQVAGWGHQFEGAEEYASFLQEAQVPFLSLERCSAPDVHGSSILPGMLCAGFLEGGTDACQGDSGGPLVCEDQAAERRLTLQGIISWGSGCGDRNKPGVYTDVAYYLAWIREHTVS
# [7] = HEK-293T viability loss after treatment – luminescence, T-cell screen hits, cytotoxicity control for TCR NF-kB inhibitor project, dose response (AID 489026); format: functional, cell-based;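 also: cells exposed to compound about 14 hours before the viability readout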
# [8] = molecular target: T3, Sentrin-specific protease 8 (Homo sapiens, UniProt Q96LD8); format: functional;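 also: luminescence read-out of SENP8 inhibition, dose-response confirmation following an ultra-high-throughput screen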
# T3 sequence (Q96LD8 whole entry): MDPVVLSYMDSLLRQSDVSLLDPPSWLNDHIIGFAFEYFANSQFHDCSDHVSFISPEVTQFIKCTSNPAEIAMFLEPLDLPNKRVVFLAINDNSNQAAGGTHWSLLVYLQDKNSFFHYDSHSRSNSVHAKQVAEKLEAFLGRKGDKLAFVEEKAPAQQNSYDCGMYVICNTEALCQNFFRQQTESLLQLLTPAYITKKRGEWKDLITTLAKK
# [9] = molecular target: T4, Sentrin-specific protease 6 (Homo sapiens, UniProt Q9GZR1); format: functional;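 also: Luminescence-based dose-response confirmatory assay of SENP6 inhibition, following up an ultra-high-throughput screen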
# T4 sequence (Q9GZR1 whole entry): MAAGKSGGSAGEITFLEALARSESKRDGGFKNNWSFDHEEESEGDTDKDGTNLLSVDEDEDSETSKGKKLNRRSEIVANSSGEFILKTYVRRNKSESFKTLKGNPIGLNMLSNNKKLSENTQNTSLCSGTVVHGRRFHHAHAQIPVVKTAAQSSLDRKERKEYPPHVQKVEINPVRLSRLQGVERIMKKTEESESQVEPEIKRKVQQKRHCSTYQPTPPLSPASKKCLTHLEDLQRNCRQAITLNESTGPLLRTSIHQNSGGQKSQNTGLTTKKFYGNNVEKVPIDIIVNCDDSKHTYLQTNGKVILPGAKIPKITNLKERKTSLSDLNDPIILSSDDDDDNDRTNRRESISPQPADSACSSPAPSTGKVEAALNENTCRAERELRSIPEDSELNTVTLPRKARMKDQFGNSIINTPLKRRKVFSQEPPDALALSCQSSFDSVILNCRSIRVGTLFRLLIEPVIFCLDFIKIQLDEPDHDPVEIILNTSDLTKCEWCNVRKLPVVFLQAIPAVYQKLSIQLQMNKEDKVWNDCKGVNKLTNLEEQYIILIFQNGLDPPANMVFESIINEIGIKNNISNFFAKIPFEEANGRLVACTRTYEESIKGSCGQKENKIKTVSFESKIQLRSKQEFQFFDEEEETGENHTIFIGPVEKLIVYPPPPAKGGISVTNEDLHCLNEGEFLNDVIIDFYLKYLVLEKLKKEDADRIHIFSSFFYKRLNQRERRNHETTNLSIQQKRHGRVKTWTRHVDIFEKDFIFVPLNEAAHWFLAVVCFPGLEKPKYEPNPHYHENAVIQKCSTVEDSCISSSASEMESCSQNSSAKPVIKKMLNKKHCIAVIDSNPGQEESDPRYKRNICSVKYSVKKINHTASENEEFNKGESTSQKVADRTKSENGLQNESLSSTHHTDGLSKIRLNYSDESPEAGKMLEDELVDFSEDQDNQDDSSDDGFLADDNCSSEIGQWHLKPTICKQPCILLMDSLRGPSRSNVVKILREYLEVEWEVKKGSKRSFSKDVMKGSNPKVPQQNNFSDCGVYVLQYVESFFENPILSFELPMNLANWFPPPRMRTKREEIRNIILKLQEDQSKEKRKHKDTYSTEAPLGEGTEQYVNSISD
# [10] = molecular target: T5, Sentrin-specific protease 7 (Homo sapiens, UniProt Q9BQF6); format: functional;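 also: Luminescence-based dose-response confirmation of ultra-high-throughput screening hits, measuring inhibition of SENP7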
# T5 sequence (Q9BQF6 whole entry): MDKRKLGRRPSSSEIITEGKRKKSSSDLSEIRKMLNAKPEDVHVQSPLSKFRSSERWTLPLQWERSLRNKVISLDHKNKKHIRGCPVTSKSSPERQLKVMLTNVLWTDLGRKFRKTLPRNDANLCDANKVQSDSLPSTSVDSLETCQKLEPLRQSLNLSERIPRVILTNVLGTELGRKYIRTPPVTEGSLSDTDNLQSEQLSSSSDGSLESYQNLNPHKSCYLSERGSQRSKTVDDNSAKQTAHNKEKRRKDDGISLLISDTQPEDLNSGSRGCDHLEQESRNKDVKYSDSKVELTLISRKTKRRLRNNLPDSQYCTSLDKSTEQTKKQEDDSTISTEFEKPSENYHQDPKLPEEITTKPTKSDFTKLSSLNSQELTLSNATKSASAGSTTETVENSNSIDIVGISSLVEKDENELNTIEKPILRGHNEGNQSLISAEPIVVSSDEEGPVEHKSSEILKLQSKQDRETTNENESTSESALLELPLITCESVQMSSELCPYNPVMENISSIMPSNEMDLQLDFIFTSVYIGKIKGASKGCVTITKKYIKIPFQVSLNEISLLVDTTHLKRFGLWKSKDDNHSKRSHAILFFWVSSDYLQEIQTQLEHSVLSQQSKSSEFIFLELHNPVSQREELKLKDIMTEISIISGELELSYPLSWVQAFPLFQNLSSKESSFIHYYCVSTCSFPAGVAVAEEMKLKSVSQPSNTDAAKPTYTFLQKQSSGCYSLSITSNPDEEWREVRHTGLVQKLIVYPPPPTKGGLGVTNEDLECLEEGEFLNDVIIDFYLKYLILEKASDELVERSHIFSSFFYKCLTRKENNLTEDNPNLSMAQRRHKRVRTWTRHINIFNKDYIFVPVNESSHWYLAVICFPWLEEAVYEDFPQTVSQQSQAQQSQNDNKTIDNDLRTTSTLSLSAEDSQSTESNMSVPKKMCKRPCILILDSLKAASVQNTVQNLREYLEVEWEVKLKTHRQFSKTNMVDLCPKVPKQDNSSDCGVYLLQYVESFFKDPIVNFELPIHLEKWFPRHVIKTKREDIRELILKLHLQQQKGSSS
# Caspase-3 = molecular target: T6, Caspase-3 (Homo sapiens, UniProt P42574); format: functional;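 also: Dose-response selectivity test against caspase-3 for candidate inhibitors of sentrin-specific proteases (SENPs)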
# T6 sequence (P42574 whole entry): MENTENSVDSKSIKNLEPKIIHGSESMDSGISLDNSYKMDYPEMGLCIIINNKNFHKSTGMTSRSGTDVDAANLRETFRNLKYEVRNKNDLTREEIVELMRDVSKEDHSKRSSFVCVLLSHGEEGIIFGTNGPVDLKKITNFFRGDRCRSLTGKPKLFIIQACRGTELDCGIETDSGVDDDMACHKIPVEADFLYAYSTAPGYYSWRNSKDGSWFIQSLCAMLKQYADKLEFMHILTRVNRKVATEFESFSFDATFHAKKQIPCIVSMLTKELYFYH
# [11] = antiviral protection against BTV-induced cell death – arbovirus, BSR cells, confirmation (AID 1250); format: functional;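 also: protection from viral cytopathic effect measured as cell viability by ATP luminescence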
# Fatty acid synthase [12] = molecular target: T7, Fatty acid synthase (Homo sapiens, UniProt P49327); assay: inhibition of human FAS-TE enzyme activity – biochemical, kinetic fluorescence intensity, dose response (AID 624326); format: functional;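 also: rate of fluorescence rise from hydrolysis of a fluorogenic O-methyl fluorescein ester substrate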
# Fatty acid synthase [13] = molecular target: T7, Fatty acid synthase; assay: inhibition of human FAS-TE enzyme activity – biochemical, endpoint fluorescence intensity, uHTS hits, dose response (AID 624327); format: functional;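 also: fluorescence from hydrolysis of an O-methyl fluorescein acyl ester substrate by the enzyme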
# cells [14] = format: functional, cell-based
# cells [15] = format: functional, cell-based; remark: listed apart in the source
# T7 sequence (P49327 whole entry): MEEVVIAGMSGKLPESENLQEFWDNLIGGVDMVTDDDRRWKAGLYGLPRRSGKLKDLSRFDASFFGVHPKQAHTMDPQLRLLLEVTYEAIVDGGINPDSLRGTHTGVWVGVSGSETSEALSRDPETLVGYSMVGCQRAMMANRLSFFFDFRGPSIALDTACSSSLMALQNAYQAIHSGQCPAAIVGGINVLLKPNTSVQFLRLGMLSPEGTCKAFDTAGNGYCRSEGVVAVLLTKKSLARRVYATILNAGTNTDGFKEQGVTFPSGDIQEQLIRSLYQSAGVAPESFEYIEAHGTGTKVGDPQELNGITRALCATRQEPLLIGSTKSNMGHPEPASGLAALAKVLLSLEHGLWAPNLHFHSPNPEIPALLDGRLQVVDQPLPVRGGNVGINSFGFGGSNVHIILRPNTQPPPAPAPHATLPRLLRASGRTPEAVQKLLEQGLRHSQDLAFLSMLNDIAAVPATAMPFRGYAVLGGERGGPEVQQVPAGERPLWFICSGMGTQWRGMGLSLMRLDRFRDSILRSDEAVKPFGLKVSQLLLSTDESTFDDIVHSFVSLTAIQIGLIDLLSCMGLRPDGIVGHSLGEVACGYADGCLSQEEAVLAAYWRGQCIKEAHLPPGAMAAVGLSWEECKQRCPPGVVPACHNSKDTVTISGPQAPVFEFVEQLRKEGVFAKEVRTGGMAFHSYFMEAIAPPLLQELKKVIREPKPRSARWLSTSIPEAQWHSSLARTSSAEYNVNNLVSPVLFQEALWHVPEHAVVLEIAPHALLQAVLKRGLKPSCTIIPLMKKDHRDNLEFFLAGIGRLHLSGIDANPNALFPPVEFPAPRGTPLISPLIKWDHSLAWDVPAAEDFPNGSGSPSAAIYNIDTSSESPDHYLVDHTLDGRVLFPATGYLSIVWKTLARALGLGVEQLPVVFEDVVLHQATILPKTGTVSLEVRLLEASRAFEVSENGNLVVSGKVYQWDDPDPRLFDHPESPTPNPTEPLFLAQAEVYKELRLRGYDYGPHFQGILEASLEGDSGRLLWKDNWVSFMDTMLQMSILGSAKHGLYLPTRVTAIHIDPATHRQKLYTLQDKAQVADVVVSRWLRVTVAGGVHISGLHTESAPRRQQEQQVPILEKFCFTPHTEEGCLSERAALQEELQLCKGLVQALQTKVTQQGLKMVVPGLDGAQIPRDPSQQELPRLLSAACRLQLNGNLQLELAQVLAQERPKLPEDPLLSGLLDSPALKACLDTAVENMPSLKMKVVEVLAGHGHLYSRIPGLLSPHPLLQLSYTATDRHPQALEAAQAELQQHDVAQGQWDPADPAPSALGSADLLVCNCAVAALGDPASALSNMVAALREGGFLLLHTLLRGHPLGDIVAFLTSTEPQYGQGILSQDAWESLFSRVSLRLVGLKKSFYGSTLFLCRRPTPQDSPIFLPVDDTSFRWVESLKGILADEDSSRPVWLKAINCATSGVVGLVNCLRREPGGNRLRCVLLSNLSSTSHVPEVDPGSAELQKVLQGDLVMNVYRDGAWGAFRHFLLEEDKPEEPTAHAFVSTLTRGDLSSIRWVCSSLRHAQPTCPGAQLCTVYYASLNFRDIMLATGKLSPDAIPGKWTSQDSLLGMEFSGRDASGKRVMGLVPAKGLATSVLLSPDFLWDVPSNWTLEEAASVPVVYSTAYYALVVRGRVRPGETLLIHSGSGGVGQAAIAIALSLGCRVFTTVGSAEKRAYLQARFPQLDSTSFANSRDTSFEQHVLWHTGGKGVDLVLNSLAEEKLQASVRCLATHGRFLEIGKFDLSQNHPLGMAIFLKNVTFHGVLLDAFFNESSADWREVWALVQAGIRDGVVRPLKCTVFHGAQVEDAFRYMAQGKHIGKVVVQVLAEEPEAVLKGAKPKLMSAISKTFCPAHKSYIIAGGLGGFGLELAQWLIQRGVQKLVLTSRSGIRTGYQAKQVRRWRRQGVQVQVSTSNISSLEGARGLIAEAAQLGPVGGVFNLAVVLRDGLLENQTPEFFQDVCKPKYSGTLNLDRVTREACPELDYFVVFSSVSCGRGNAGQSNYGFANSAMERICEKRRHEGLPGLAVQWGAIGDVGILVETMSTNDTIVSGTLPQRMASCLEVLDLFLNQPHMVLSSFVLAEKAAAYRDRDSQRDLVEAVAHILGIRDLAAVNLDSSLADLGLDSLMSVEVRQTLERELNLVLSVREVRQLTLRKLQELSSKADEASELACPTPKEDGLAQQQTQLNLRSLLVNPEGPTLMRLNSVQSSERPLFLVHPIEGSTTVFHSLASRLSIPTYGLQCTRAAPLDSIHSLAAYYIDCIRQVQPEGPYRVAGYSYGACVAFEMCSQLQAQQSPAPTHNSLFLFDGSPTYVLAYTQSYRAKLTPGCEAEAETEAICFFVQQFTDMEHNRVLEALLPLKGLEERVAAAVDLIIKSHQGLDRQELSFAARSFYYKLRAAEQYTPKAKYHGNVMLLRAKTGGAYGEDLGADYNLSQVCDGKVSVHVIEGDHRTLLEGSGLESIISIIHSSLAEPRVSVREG
smiles,measurement,setting,value
CCOc1ccc(C(=O)Nc2cccc(C(=O)O)c2C)cc1Cl,AC50,[1],8.96 µM (active)
same,AC50,[2],10.1 µM (active)
same,AC50,[3],8.56 µM (active)
Cc1cc(C(=O)CN2C(=O)c3ccccc3S2(=O)=O)c(C)n1-c1ccccc1,EC50,[4],5.88 µM (active)
same,EC50,[5],7.71 µM (active)
same,AC50,[3],3.45 µM (active)
same,EC50,[6],9.5 µM (active)
O=C(NC1CCCc2ccccc21)C1CCN(S(=O)(=O)c2ccccc2F)CC1 (centres undefined),IC50,Coagulation factor XII,> 50 µM (inactive)
CCOc1ccc(-c2[nH]ncc2-c2ccc(OC)c(OC)c2)c(O)c1,IC50,[7],75.8 µM (inactive)
CCc1ccc(/C=N/NC(=O)c2cc(C3CC3)nc3ccccc23)s1,IC50,[7],> 80 µM (inactive)
COc1ccc(NC(=O)Cn2nnc(-c3ccccc3NS(=O)(=O)c3ccc(OC)cc3)n2)cc1,IC50,[7],> 80 µM (inactive)
COc1ccc(/C=C2\CCc3ccccc3C2=O)cc1OC,IC50,[8],22.1 µM (active)
same,IC50,[9],15.8 µM (active)
same,IC50,[10],7.94 µM (active)
same,IC50,Caspase-3,27.3 µM (active)
Cc1cc(NC(=O)COC(=O)C2CCN(S(=O)(=O)c3c(Cl)cccc3Cl)CC2)no1,IC50,Coagulation factor XII,> 50 µM (inactive)
COc1cccc(/N=C/c2c(O)oc3ccccc3c2=O)c1,IC50,[8],> 100 µM (inactive)
same,IC50,[9],> 100 µM (inactive)
same,IC50,[10],14.2 µM (active)
same,IC50,Caspase-3,> 100 µM (inactive)
COc1ccc(C(=O)CSc2nc3ccc[nH]c-3n2)cc1OC,IC50,Coagulation factor XII,> 50 µM (inactive)
O=C(Nc1nc2c(s1)CCCC2)c1ccc(Br)s1,IC50,[11],25.7 µM (active)
same,IC50,[8],25.4 µM (active)
same,IC50,[9],5.95 µM (active)
same,IC50,[10],4.82 µM (active)
same,IC50,Caspase-3,24.9 µM (active)
O=C(C1CC(c2ccc(Cl)c(Cl)c2)=NO1)N1CCC2(CC1)OCCO2 (centres undefined),IC50,Fatty acid synthase [12],5.55 µM (active)
same,IC50,Coagulation factor XII,> 50 µM (inactive)
same,IC50,Fatty acid synthase [13],7.22 µM (active)
O=C(O)c1ccc(Nc2nc3c(s2)CCCC3)cc1,AC50,[1],4.2 µM (active)
same,AC50,[2],4.75 µM (active)
same,AC50,[3],6.49 µM (active)
CCOc1cc(NC(=O)CCl)c(OCC)cc1NC(=O)CCl,AC50,[3],5.51 µM (active)
O=Nc1ccc(NOC(=O)c2ccccc2)cc1,IC50,[8],> 100 µM (inactive)
same,IC50,[9],21.7 µM (active)
same,IC50,[10],8.98 µM (active)
same,IC50,Caspase-3,48.4 µM (active)
Cc1nonc1OC(C)CNCCNc1ccc([N+](=O)[O-])cc1 (centres undefined),IC50,Coagulation factor XII,> 50 µM (inactive)
O=[N+]([O-])c1ccc(N/N=C/c2ccccc2O)cc1,EC50,cells [14],> 350 µM (not active)
same,EC50,cells [15],10.4 µM (active)
same,IC50,[8],55.1 µM (active)
same,IC50,[9],22.1 µM (active)
same,IC50,[10],4.9 µM (active)
same,IC50,Caspase-3,31.1 µM (active)
